From publication PMC5008412, “A phase I study of indoximod in patients with advanced malignancies” (Oncotarget, 2016)

Assays:
[1] = system: Lewis lung cancer mouse xenografts; design: method as in PMID 15711557, PMID 16166276; settings: transplanted Lewis lung cancer mouse xenografts; cited from earlier work
[2] = system: 30 different tumor-associated antigens; test: Autoantibody titers to tumor-associated antigens (Serametrix protein microarray); format: in vivo, human; settings: week 5; of 40 patients evaluated; P < 0.05
Method: (§1) Plasma kynurenine and tryptophan levels were measured via high-performance liquid chromatography at baseline and during weeks 1-4 of treatment using previously published methods. Humoral responses toward multiple cancer-testis antigens were analyzed by a proprietary whole protein microarray (Serametrix, Carlsbad, CA) in a 200-μL plasma aliquot, collected at blood draws at baseline and at week 5. Autoantibody titers were reported as relative fluorescence units using human anti-IgG reporter antibodies with blank and predetermined IgG antibody titer control spots using a Perkin Elmer fluorescence scanner.

[3] = system: C-reactive protein; test: C-reactive protein levels; format: in vivo, human
Description: Physical examinations, autoimmunity evaluations, complete blood counts, metabolic panels, and C-reactive protein levels were obtained at baseline and every 2 weeks. Pituitary function tests (thyroid-stimulating hormone, free T4, luteinizing hormone, follicular stimulating hormone, and adrenocortical hormone) and anti-nuclear autoantibody titers were obtained at baseline and every 4 weeks.

[4] = system: IDO; test: Plasma kynurenine/tryptophan pharmacodynamics (HPLC); format: in vivo, human
Method: as §1

[5] = Plasma pharmacokinetics (LC-MS/MS, non-compartmental); format: in vivo, human
Method: A validated liquid chromatography triple-quadrupole with tandem mass spectrometry method was used to determine levels of indoximod in plasma. The methods were validated per International Conference on Harmonization/Food and Drug Administration guidelines. Plasma samples were prepared for chromatographic injections by protein precipitation as described in Supplement 1.
Plasma concentration-time data for indoximod were analyzed by non-compartmental pharmacokinetic methods using Phoenix WinNonlin 6.3 (Pharsight Corp., Mountain View, CA). Data in the terminal, log-linear phase were analyzed by linear regression to estimate terminal elimination rate constant and half-life. These additional pharmacokinetic parameters were also determined: AUC0-48, AUC0-inf, Cmax, Tmax, terminal half-life (t1/2), apparent clearance, and apparent volume of distribution.

[6] = system: circulating T cell populations; test: T-cell flow cytometry panel on patient blood; format: in vivo, human
Description: At weeks 1, 3, 5, and 7 of treatment, patient blood was collected into 3 heparinized 10-mL Vacutainer tubes. Samples underwent Ficoll separation and cryopreservation for subsequent analyses. A total of 16 patients across dose levels 4-10 had satisfactory samples collected at all 4 time points for multiparameter flow analyses (see Table 1 for definition of dose levels). Flow cytometry analyses using a T-cell panel (CCR6-FITC, CD45RO-PerCP-Cy5, CD45RA-BV421, HLADR-BV650, CD4-PE, CD25-PECy7, CD127-Alexa 647, CD3- BUV395, Live/Dead Aqua, CD8-BUV737) to determine changes in circulating levels of T-regulatory cells (CD4+CD25+CD127low), naïve (CD45RA+) versus memory (CCR6+/−CD45RO+) CD4 and CD8 T cells, and activated T-cell subsets (HLA-DR+) were carried out in the Moffitt Flow Cytometry Core on an LSRII with compensation beads and fluorescence minus one controls. Gating was done using fluorescence minus one thresholds, and analyses were done using FloJo X software. Mean percentages of the populations were calculated from single, live, CD3+-gated events and analyzed across the 4 time points for the entire group, with lower (dose levels 4-8) versus higher (dose levels 9-10) dose levels compared using ANOVA in Prism GraphPad. P levels of 0.05 indicated significance.

[7] = design: method as in PMID 17234791; settings: combined with cyclophosphamide; compared among forms of 1-methyl-tryptophan; cited from earlier work
[8] = system: advanced solid tumors; test: Response evaluation by RECIST 1.1; format: in vivo, human
Method: Overall response rate was determined via the criteria described by the RECIST 1.1 guidelines. Baseline evaluations were conducted within 14 days before start of therapy, with CT scans performed within 4 weeks before start of therapy. Patients were then reevaluated every 8 weeks with diagnostic CT scans. The best overall response achieved during study therapy was recorded for each patient. The response data presented herein underwent site radiology review. The duration of response was measured from the time criteria were met for complete or partial response until the first date that recurrent or progressive disease was documented.

Row | Compound | effect on tumor growth [1] | patients with significantly higher autoantibody titers than at baseline [2] | C reactive protein (CRP) levels ([3]; across multiple dose levels) | mean level of C-reactive protein ([3]; week 3 of treatment, baseline 3.81 mg/dL, P = 0.02) | effect on circulating kynurenine levels [4] | half-life ([5]; human, plasma, po) | Cmax ([5]; human, plasma, 2000 mg twice/day oral) | dose range with linear dose response of AUC and Cmax ([5]; oral) | single doses with plateauing of peak serum levels ([5]; oral) | drug renally cleared ([5]; patients) | oral bioavailability ([5]; patients) | time at which Cmax occurred ([5]; plasma, oral) | anticipated therapeutic dose of 10 to 15 μM ([5]; serum drug level with current dosing schedules) | changes in T cell populations (Treg, naive/memory CD4 and CD8, activated subsets) ([6]; baseline through week 7, group as a whole) | dose-dependent changes in T cell populations ([6]; higher dose levels versus lower dose levels) | in vivo antitumor activity [7] | patients with stable disease >6 months ([8]; of 48 patients) | single-agent antitumor activity ([8]; patients with advanced solid tumors) | best response ([8]; site radiologist assessment, RECIST 1.1)
1 | Cn1cc(CC(N)C(=O)O)c2ccccc21 (racemic) [1-methyl-DL-tryptophan] | delaying growth |  |  |  |  |  |  |  |  |  |  |  |  |  |  |  |  |  | 
2 | Cn1cc(C[C@@H](N)C(=O)O)c2ccccc21 [indoximod, 1-methyl-D-tryptophan] |  | 12 | increased | 5.13 mg/dL | lack of effect | 10.5 h | ~12 µM | up to 800 mg once daily | ≥ 1600 mg | 20% | good | 2.9 h | reached | did not identify any statistically significant changes | no detectable dose-dependent changes | superior | 5 | modest | stable disease
